Reference: patent US9733237B2, “Methods for identifying candidates for the treatment of neurodegenerative diseases” (The Trustees of Columbia University in the City of New York, priority 2012, dated 2017)
Read-outs that look alike come from different tables or passages of the source.

Legend:
[1] = system: SOD1^G93A (ALS) and SOD1^WT mouse embryonic stem cell-derived motor neurons; assay: Two-color screen for agents preferentially toxic to ALS motor neurons (mixed WT/G93A ES-MN culture); type: cell-based; details: for Preferential activity on ALS motor neurons: independent pair of WT and G93A lines
Experimental: GFP+ and RFP+ motor neurons were seeded in 96-well plates at equal proportions and imaged using a whole-well imaging platform (Plate Runner HD, Trophos, Marseilles, France). Live cells were scored with an automated image software (Metamorph, Molecular Devices, LLC, Sunnyvale, Calif.) using a neurite outgrowth criterion of five times the cell body diameter. Compounds from a small molecule library (Trophos) were loaded using automated liquid handling, and motor neuron survival was scored at 48 and 72 hours after exposure to stressors.
A survival ratio was calculated by dividing surviving % red cells with green cells for each well (lower left panel). Compounds eliciting ratios greater than 1.6 were considered hits (highlighted in lower left panel).
Multiple ES cell lines from SOD1^G93A mice that had been bred to a reporter strain expressing GFP under the motor neuron-specific Hb9 promoter were generated. ES cells from mice overexpressing wildtype human SOD1 (SOD1^WT) bred to mice expressing a new Hb9::RFP reporter (K. C. Kanning, unpublished) were used as controls. When differentiated in vitro using retinoic acid and an agonist of the sonic hedgehog pathway, these ES cells therefore generated green ALS motor neurons and red controls (FIG. 1A). By mixing these in equal numbers in culture, the response of ALS and control motor neurons to otherwise identical culture conditions could be quantified. This approach would reduce noise due to differences in individual culture wells, seeding density, position in incubator, etc., and that the ratio between numbers of WT and G93A cells would be a sensitive measure of selective vulnerability.
Using this assay miniaturized to a 96-well format, it was confirmed that after 3 days in either the presence or absence of a cocktail of neurotrophic factors, there was only a subtle decrease in ALS motor neuron survival relative to controls. An open-ended screen of the Tocriscreen Mini and Custom collection library of bioactive compounds was therefore performed to identify agents of known mechanism that could selectively induce death of ALS motor neurons. A total of 1,275 compounds were screened initially at a single concentration (10 μM), and those that were deemed too toxic were retested at 1 μM. […] Preferential activity on ALS motor neurons was subsequently confirmed for 4 of the hits using an independent pair of WT and G93A lines (FIG. 1B). The active compounds were: (a) capsaicin, an agonist of the […] receptor that is predominantly expressed on sensory neurons, (b) CPA (cyclopiazonic acid), which is an inhibitor of SERCA (sarco(endo)-plasmic reticulum Ca^++-ATPase) pumps, which sequester Ca^++ into the ER from the cytoplasm in an ATP-dependent manner (FIG. 2A), (c) DH97, a potent MT2 melatonin receptor antagonist, and (d) 2,3-DCPE, a compound that selectively induces apoptosis and downregulates Bcl-xL expression in human cancer vs. normal cells in vitro. The inventors focused on CPA because it induced the most robust change in the WT/G93A ratio (>3 in both combinations of ES lines) and because of the relevance of its mechanism of action to the alterations in Ca^++ handling that are characteristic of ALS motor neurons.
We first asked whether the actions of CPA were direct on motor neurons, or mediated by other cell types present in the mixed culture used for screening. […] Thus, degeneration induced by SERCA inhibition robustly differentiates between SOD1^G93A and SOD1^WT motor neurons. Neither thapsigargin nor CPA has gross effects on neuronal function. […] This provides further support for the notion that the selective effect of SERCA inhibitors on ALS motor neurons is a function of the disease.
A library of small molecule compounds (Tocriscreen Mini & Custom collection, 1275 compounds, or other collections of novel compounds) will be added at a concentration of 10 μM using automated liquid handling. The compounds will be added to the wells following the 20 hour imaging time point. […]

ES-MNs (G93A and WT) = assay: Fura-2 calcium imaging of Ca++ release from ER stores; type: cell-based, mouse; details: 10 μM CPA, 20 minutes
Excerpt: To explore potential mechanisms underlying the ALS-selective toxicity of CPA, calcium imaging in ES-MNs loaded with the calcium indicator dye Fura-2 was used. In preliminary experiments, rise and fall constants following a 5-second pulse of kainic acid were monitored, and no significant difference between the G93A and WT lines were found (FIG. 2B). […] It was hypothesized that CPA might selectively induce an imbalance in Ca^++ handling. To monitor release of Ca^++ from endoplasmic reticulum (ER) stores, ES-MNs of each genotype were incubated for 20 minutes with 10 μM CPA. An initial rapid increase of Fura-2 signal was followed by a slow recovery, as Ca^++ was sequestered by other routes, out of which mitochondria may be the main compensatory compartment.

[2] = system: neurons of the pre-Botzinger complex; details: cited from earlier work
SOD1^G93A mice = details: in vivo; cited from earlier work

With `OCCNCCCOc1cccc(Cl)c1Cl` [2,3-DCPE] the “Preferential activity on ALS motor neurons” value (“Preferential activity” below) [1] was “confirmed”.
In the case of `CC(=O)C1=C(O)[C@@H]2[C@H]3c4c[nH]c5cccc(c45)C[C@H]3C(C)(C)N2C1=O` [CPA, cyclopiazonic acid], the “reduction in WT motor neurons numbers” value ([1]; 7.5 μM, after 48 hours) is reported as 40-50%, the “survival ratio (red WT cells/green mutant cells)” value ([1]; 7.5 μM, after 48 hours) is reported as 1.6-1.75 and the “change in the WT/G93A ratio” value ([1]; both combinations of ES lines) is reported as over 3. For the same compound, the “G93A cells with greater initial Ca++ release” value (ES-MNs (G93A and WT)) was “about 40%” and the “effect on respiratory rhythm” value ([2]; applied to neurons of the pre-Botzinger complex) was “do not affect respiratory rhythm”.
For `CCCCC(=O)NCCc1c(Cc2ccccc2)[nH]c2ccccc12` [DH97], the “Preferential activity” value [1] was “confirmed”.
For `O=C(/C=C/c1ccccc1)NC(NC(=S)Nc1cccc2cccnc12)C(Cl)(Cl)Cl` (centres unmarked) [Salubrinal], the “protection in SOD1^G93A mice” value (SOD1^G93A mice) is given as “protective”.
In the case of `COc1cc(CNC(=O)CCCC/C=C/C(C)C)ccc1O` [capsaicin], the “Preferential activity” value [1] is reported as “confirmed”.
In the case of `C/C=C(/C)C(=O)O[C@H]1C(C)=C2[C@H]([C@@H]1OC(=O)CCCCCCC)[C@@](C)(OC(C)=O)C[C@H](OC(=O)CCC)[C@@]1(O)[C@H]2OC(=O)[C@@]1(C)O` [thapsigargin], the “death of ALS motor neurons relative to controls” value ([1]; concentrations on the order of 1 nM) is given as 2- to 4 fold and the “effect on respiratory rhythm” value [2] is given as “do not affect respiratory rhythm”.
